Data reported in US8242240B2, “Anti-inflammatory compounds and uses thereof” (Yale University, priority 2000, dated 2012).
Where “and” joins values, the source holds several entries; their conditions need not be identical. Equal entries are not always repeated. [ ]: non-standard residue; d: D form.

Tests used:
[1] = tested on: mice (PMA-induced ear edema); assay: PMA-induced ear edema in mice; format: in vivo; details: topical 40 μg/ear, 30 min before and after PMA 5 μg/ear, 6 h
Experimental: The NBD peptide was tested for its ability to inhibit inflammatory responses in animals using two distinct models of acute inflammation. In the first model, ear edema was induced in mice using phorbol-12-myristate-13-acetate (PMA) and the effects of topical administration of the NBD peptides were measured. Ear edema using PMA was induced in replicate groups of age and sex matched mice as previously described (Chang et al., (1987) Eur. J. Pharmacol. 142, 197-205). Twenty μl of either NBD peptides (200 μg/ear), dexamethasone (40 μg/ear) or vehicle (DMSO:Ethanol; 25:75 v/v) was applied topically to the right ear of mice thirty minutes before and thirty minutes after the application of 20 μl of PMA (5 μg/ear) dissolved in ethanol. Ear swelling was measured six hours after PMA application using a microgauge and expressed as the mean difference in thickness between the treated (right) and untreated (left) ears. Statistical analysis of the data was performed using the students t-test. A value of p<0.05 was considered statistically significant.

[2] = tested on: mice (zymosan-induced peritonitis); assay: Zymosan-induced peritonitis in mice; format: in vivo, mice (C57BL/6NCR); details: dexamethasone 100 mg/ml i.p. with zymosan
Experimental: In a second model, peritonitis was induced in mice by intraperitoneal (i.p.) injection of zymosan either alone or in combination with dexamethasone or the NBD peptides. For zymosan-induced peritonitis, measurement of peritoneal exudates and inflammatory cell collections from replicate groups of age and sex matched mice (C57BL/6NCR) were performed as previously described (Getting et al., (1998) Immunology 95, 625-630). Groups of animals were injected concomitantly with one ml zymosan (1 mg/ml) and either dexamethasone (100 mg/ml) or the NBD peptides (200 mg/ml). The concentration of NOX (nitrate plus nitrite) present in the inflammatory exudates was measured using a colorimetric assay kit (Alexis Corporation) according to the manufacturers protocol.

NEMO = biological target: T1, NEMO (Homo sapiens, UniProt Q9Y6K9); assay: GST pull-down of IKKβ NBD mutants by GST-NEMO; format: binding; details: GST pulldown assay; NBD mutations in IKKβ
T1 construct: bacterially expressed version of full length NEMO fused at its NH2-terminus to glutathione S-transferase; made in house; host or cells: bacteria (pGEX-4T1)
From the text: To identify the NEMO-interacting domain of IKKβ we performed in vitro pull down assays (Zhong et al., (1997) Cell 89, 413-424) using a bacterially expressed version of full length NEMO fused at its NH2-terminus to glutathione S-transferase (GST-NEMO; FIG. 1A). Various truncation mutants lacking different functional domains of IKKβ (catalytic domain, leucine zipper and helix-loop-helix; FIG. 1A) were constructed.
These mutants were labeled by in vitro translation with [^35S]-methionine (input; FIG. 1B), mixed with either GST alone or GST-NEMO, and precipitated using glutathione-agarose. […]
Further mutations in the NBD were analyzed (see Table 1) for their ability to affect NEMO binding to IKKβ using the GST pulldown assay explained in Example 3.

[3] = tested on: mice (lethal Salmonella typhimurium LPS challenge); assay: Lethal lipopolysaccharide mouse model; format: in vivo, male C57BL/6 mice
Experimental: In this experiment, the ability of anti-inflammatory compounds of the invention to rescue mice challenged with a lethal amount of lipopolysaccharide (LPS) was assessed. LPS is a bacterial product that induces many of the responses that are seen in septic patients, including death. In this model, Salmonella typhimurium LPS in phosphate-buffered […] (PBS) was administered to male C57BL/6 mice by intravenous injection at a dose of 30 mg/kg (600 μg/20 g mouse). This dose was established in control experiments to be lethal in 100% of the mice that received it. Mice were treated with the test peptide by intravenous injection (in 1% dimethyl sulfoxide in PBS) immediately prior to the LPS injection and 24 hours after the LPS injection. Mice were monitored twice daily for up to 8 days after receiving LPS and the duration of survival and the number of surviving mice were recorded.

[4] = tested on: mice (Concanavalin A-induced hepatitis); assay: Concanavalin A-induced hepatitis in mice; format: in vivo, male C57BL/6 mice; details: for ALT / AST: serum 18-24 h, mean±SEM
Experimental: Forty male C57BL/6 mice weighing between 18 g and 22 g were divided into five treatment groups of eight mice each as shown below.
The mice were placed in a restrainer and injected intravenously (i.v.) in the tail with a test peptide or vehicle in 1% DMSO in PBS. The mice were then immediately injected i.v. with 15 mg/kg of concanavalin A dissolved in sterile PBS. The injection volume was 5 ml/kg (100 μI/20 g mouse) with a concanavalin A concentration of 3.0 mg/ml. The next morning (18-24 hours later), these mice were euthanized by CO2 inhalation and blood was collected by cardiac puncture. The serum was then separated and analyzed for AST and ALT.
ALT and AST values are given as Sigma-Frankel units/ml, mean±SEM.

[5] = dose 1 mg/kg i.v., number dosed 8, LPS 30 mg/kg i.v.
[6] = dose 5 mg/kg i.v., number dosed 8, LPS 30 mg/kg i.v.
[7] = dose 5 mg/kg i.v., number dosed 7, LPS 30 mg/kg i.v.
[8] = concanavalin A 15 mg/kg i.v. + 0.5 mg/kg i.v.
[9] = concanavalin A 15 mg/kg i.v. + 1 mg/kg i.v.
[10] = concanavalin A 15 mg/kg i.v. + 5 mg/kg i.v.

T1 sequence (Q9Y6K9 whole entry, the tested form may be a part): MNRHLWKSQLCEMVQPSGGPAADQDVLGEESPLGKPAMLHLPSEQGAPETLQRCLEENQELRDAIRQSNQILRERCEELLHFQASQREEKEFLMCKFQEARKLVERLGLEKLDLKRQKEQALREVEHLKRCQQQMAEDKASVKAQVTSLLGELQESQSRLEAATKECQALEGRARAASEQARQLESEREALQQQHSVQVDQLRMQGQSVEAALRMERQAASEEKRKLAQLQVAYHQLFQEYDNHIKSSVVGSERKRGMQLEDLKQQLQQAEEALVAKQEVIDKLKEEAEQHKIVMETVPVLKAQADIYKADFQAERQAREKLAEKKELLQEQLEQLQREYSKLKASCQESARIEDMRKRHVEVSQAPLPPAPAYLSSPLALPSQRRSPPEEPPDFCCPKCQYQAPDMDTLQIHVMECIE

Compound | Binds to NEMO (NEMO) | survival (day five), number of mice surviving [3, 6] | further results
C[C@@H]1C[C@H]2[C@@H]3CCC4=CC(=O)C=C[C@]4(C)[C@@]3(F)[C@@H](O)C[C@]2(C)[C@@]1(O)C(=O)CO [dexamethasone] | – | – | inhibition of PMA-induced ear thickening [1]: 82%; reduction of NOX in peritoneal exudates [2]: 86±7%
ADWSWL | yes | – | –
H-RRMKWKKLDWSWL-NH2 [compound 6] | – | 7 and 5 and 4 and 8 | survival (day five), number of mice surviving [3, 5]: 0
H-RRMKWKKTALDWSWLQTE-NH2 [compound 1] | – | – | survival (day five), number of mice surviving [3, 7]: 1
H-YARAARRAARRLDWSWL-NH2 [compound 9] | – | 6 and 8 | survival (day five), number of mice surviving [3, 5]: 0
H-YARAARRAARRTALDWSWLQTE-NH2 [compound 5] | – | – | survival (day five), number of mice surviving [3, 5]: 4
H-YARKARRQARRTALDWSWLQTE-NH2 [compound 4] | – | 0 | –
H-YGRKKRRQRRRLDWSWL-NH2 [compound 11] | – | 6 | –
H-YGRKKRRQRRRTALDWSWLQTE-NH2 [compound 2] | – | 4 | survival (day five), number of mice surviving [3, 7]: 7
H-rrmkwkkLDWSWL-NH2 (H-[dR][dR][dM][dK][dW][dK][dK]LDWSWL-NH2; SMILES CSCC[C@@H](NC(=O)[C@@H](CCCNC(=N)N)NC(=O)[C@H](N)CCCNC(=N)N)C(=O)N[C@H](CCCCN)C(=O)N[C@H](Cc1c[nH]c2ccccc12)C(=O)N[C@H](CCCCN)C(=O)N[C@H](CCCCN)C(=O)N[C@@H](CC(C)C)C(=O)N[C@@H](CC(=O)O)C(=O)N[C@@H](Cc1c[nH]c2ccccc12)C(=O)N[C@@H](CO)C(=O)N[C@@H](Cc1c[nH]c2ccccc12)C(=O)N[C@@H](CC(C)C)C(N)=O) [compound 7] | – | 8 | –
H-rrrrrrrLDWSWL-NH2 (H-[dR][dR][dR][dR][dR][dR][dR]LDWSWL-NH2; SMILES CC(C)C[C@H](NC(=O)[C@H](Cc1c[nH]c2ccccc12)NC(=O)[C@H](CO)NC(=O)[C@H](Cc1c[nH]c2ccccc12)NC(=O)[C@H](CC(=O)O)NC(=O)[C@H](CC(C)C)NC(=O)[C@@H](CCCNC(=N)N)NC(=O)[C@@H](CCCNC(=N)N)NC(=O)[C@@H](CCCNC(=N)N)NC(=O)[C@@H](CCCNC(=N)N)NC(=O)[C@@H](CCCNC(=N)N)NC(=O)[C@@H](CCCNC(=N)N)NC(=O)[C@H](N)CCCNC(=N)N)C(N)=O) [compound 8] | – | 7 and 8 | survival (day five), number of mice surviving [3, 5]: 0
H-rrrrrrrTALDWSWLQTE-NH2 (H-[dR][dR][dR][dR][dR][dR][dR]TALDWSWLQTE-NH2; SMILES CC(C)C[C@H](NC(=O)[C@H](C)NC(=O)[C@@H](NC(=O)[C@@H](CCCNC(=N)N)NC(=O)[C@@H](CCCNC(=N)N)NC(=O)[C@@H](CCCNC(=N)N)NC(=O)[C@@H](CCCNC(=N)N)NC(=O)[C@@H](CCCNC(=N)N)NC(=O)[C@@H](CCCNC(=N)N)NC(=O)[C@H](N)CCCNC(=N)N)[C@@H](C)O)C(=O)N[C@@H](CC(=O)O)C(=O)N[C@@H](Cc1c[nH]c2ccccc12)C(=O)N[C@@H](CO)C(=O)N[C@@H](Cc1c[nH]c2ccccc12)C(=O)N[C@@H](CC(C)C)C(=O)N[C@@H](CCC(N)=O)C(=O)N[C@H](C(=O)N[C@@H](CCC(=O)O)C(N)=O)[C@@H](C)O) [compound 3] | – | 5 and 8 | survival (day five), number of mice surviving [3, 7]: 7
H-yaraarraarrLDWSWL-NH2 (H-[dY][dA][dR][dA][dA][dR][dR][dA][dA][dR][dR]LDWSWL-NH2; SMILES CC(C)C[C@H](NC(=O)[C@H](Cc1c[nH]c2ccccc12)NC(=O)[C@H](CO)NC(=O)[C@H](Cc1c[nH]c2ccccc12)NC(=O)[C@H](CC(=O)O)NC(=O)[C@H](CC(C)C)NC(=O)[C@@H](CCCNC(=N)N)NC(=O)[C@@H](CCCNC(=N)N)NC(=O)[C@@H](C)NC(=O)[C@@H](C)NC(=O)[C@@H](CCCNC(=N)N)NC(=O)[C@@H](CCCNC(=N)N)NC(=O)[C@@H](C)NC(=O)[C@@H](C)NC(=O)[C@@H](CCCNC(=N)N)NC(=O)[C@@H](C)NC(=O)[C@H](N)Cc1ccc(O)cc1)C(N)=O) [compound 10] | – | 8 and 6 | survival (day five), number of mice surviving [3, 5]: 5; liver injury by concanavalin A, gross pathology ([4]; 5 mg/kg): prevented; protection against concanavalin A-induced liver damage ([4]; 5 mg/kg): able to protect; ALT [4, 8]: 1919 ± 234 Sigma-Frankel units/ml; AST [4, 8]: 1217 ± 192 Sigma-Frankel units/ml; ALT [4, 9]: 1910 ± 281 Sigma-Frankel units/ml; AST [4, 9]: 1264 ± 270 Sigma-Frankel units/ml; ALT [4, 10]: 72 ± 19 Sigma-Frankel units/ml; AST [4, 10]: 99 ± 14 Sigma-Frankel units/ml
LAWSWL (Description of Artificial Sequence: Synthetic NBD peptide) | no | – | –
LDASAL (Description of Artificial Sequence: Synthetic NBD peptide) | no | – | –
LDASWL (Description of Artificial Sequence: Synthetic NBD peptide) | no | – | –
LDFSWL | yes | – | –
LDWAWL | yes | – | –
LDWEWL (Description of Artificial Sequence: Synthetic NBD peptide) | yes | – | –
LDWSAL (Description of Artificial Sequence: Synthetic NBD peptide) | no | – | –
LDWSFL (Description of Artificial Sequence: Synthetic NBD peptide) | yes | – | –
LDWSWA (Description of Artificial Sequence: Synthetic NBD peptide) | yes | – | –
LDWSWL (Description of Artificial Sequence: Synthetic NBD peptide) | yes | – | –
LDWSYL (Description of Artificial Sequence: Synthetic NBD peptide) | no | – | –
LDYSWL (Description of Artificial Sequence: Synthetic NBD peptide) | yes | – | –
LEWSWL (Description of Artificial Sequence: Synthetic NBD peptide) | yes | – | –
LNWSWL (Description of Artificial Sequence: Synthetic NBD peptide) | yes | – | –
